Results: patent EP0550007A2, “Eseroline derivatives having anticholinesterase activity, a process for their preparation and pharmaceutical compositions containing them” (priority 1991, dated 1993)

How the values were obtained:
[1] = molecular target: T1, acetylcholinesterase (Mus musculus, UniProt P21836); experiment: inhibition of acetylcholinesterase activity on the mouse brain after single doses; format: in vivo; conditions: for suppression of the enzymatic activity: even at higher doses; for duration of the inhibitory activity compared with physostigmine: mouse brain acetylcholinesterase; for inhibition of the acetylcholinesterase activity, on the mouse brain: single doses in the range 0.4 - 7 mg/kg
T1 construct: from tissue; host or cells: mouse brain
T1 sequence (P21836 32-614): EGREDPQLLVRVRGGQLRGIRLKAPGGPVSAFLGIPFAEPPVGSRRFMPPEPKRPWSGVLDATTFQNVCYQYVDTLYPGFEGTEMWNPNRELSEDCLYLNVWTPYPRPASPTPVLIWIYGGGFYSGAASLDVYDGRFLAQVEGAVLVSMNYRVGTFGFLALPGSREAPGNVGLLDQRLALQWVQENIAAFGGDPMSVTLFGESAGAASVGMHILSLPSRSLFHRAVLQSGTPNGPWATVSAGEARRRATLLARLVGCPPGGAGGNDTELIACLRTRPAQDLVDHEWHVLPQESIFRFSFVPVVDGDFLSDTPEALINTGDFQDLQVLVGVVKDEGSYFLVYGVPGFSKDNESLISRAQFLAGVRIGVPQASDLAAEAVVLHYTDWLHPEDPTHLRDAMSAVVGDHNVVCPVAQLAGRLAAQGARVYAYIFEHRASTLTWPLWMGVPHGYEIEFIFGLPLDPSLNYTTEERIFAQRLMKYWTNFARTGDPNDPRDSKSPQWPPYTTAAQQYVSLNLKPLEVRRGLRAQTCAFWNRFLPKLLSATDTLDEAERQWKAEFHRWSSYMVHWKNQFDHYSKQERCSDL

[2] = antagonist effect on the stimulating effect of scopolamine (motor activity), ESE series; format: in vivo; conditions: oral administration of 2.5 mg; scopolamine 1 mg/kg
Method: This is countered by the oral administration of 2.5 mg of ESE001, ESE002, ESE003, ESE004.

[3] = pharmacokinetics in mouse after oral and intramuscular administration; format: in vivo
Method: The kinetics of the four products to be considered, is studied in mouse after oral and intramuscular administration, of respectively 7 and 3.5 mg/kg respectively of ESE001, ESE002, ESE003, ESE004.

[4] = system: mouse; experiment: analgesic activity, 2-phenylbenzoquinone test; format: in vivo
From the text: Expte. Biol. Med. 95, 729, (1957).]
The procedure followed represents a modification of the test developed by Hoffner [Dtsch. Med. Wschr. 55, 731 (1929)].

[5] = toxicity, LD50 i.p. (Table 1); format: in vivo; conditions: 50 % of the animals died within 24 hours from the administration; for LD50 at 24 h: in vivo, ip
Method: LD50 is determined for the dose (mg/kg) at which 50 % of the animals died within 24 hours from the administration.

[6] = system: mouse; experiment: spontaneous motility (Dews' method modified according to Carminati); format: in vivo, mouse (SWISS strain); conditions: for reduction of spontaneous motility: oral, starting from minimal doses of 3.5-5 mg/kg, on average; for minimal doses causing a marked reduction of spontaneous motility: orally administered
From the text: The Dews' method was utilized, as modified according to Carminati (Arch. Int. Pharmacodyn. et Thér. 181, 68,1969).

[7] = preliminary pharmacokinetics, plasma level by HPLC; format: in vivo, Wistar rats; conditions: rats, 6.2 mg/kg/os
From the text: The presence of the substance in the plasma was evidenced by HPLC. With this method, the identification threshold was 0.15 mcg per ml of plasma.

[8] = acute toxicity, oral LD50 in the mouse; conditions: mouse, in vivo, po
From the text: (§1) The mouse was used (Swiss strain having the average weight of the male mice being 26 g and 22 g that of the female mice: 5+5 animals per dose, observation period: 7days) The oral LD50 (suspension in 2% carboxymethylcellulose) were reported hereinbelow: Tab.2

[9] = system: acetylcholinesterase activity (AchE); experiment: in vivo anticholinesterase activity (blood and brain, Ellman colorimetric method); set-up: species or system Wistar male rats; conditions: rats, oral, 1.5 to 4 mg/kg; sacrificed after 20, 60 and 120 minutes
Method: The derivatives, under question and physostigmine suspended in 2% carboxymethylcellulose, were orally administered to groups of Wistar male rats (average weight about 250 g).
On the base of the obtained results in preliminary trials, the doses utilized for the comparison were comprised beween 0.2 and 0.4 mg/kg for physostigmine and between 1.5 and 4 mg/kg for the eseroline derivatives under question.
The groups of treated rats were sacrificed after 20, 60, and 120 minutes and the blood and the brain of each animal were immediately cooled to 0°C and maintained at this temperature during the successive treatments.
The acetylcholinesterase activity (AchE) was determined by using the Ellman et al's quick colorimetric method (Biochem. Pharmacol., 7, 88, 1961) and it was expressed as enzymatic inhibition percentage.

[10] = system: mouse; experiment: acute toxicity, oral LD50 in the mouse; conditions: oral, suspension in 2% carboxymethylcellulose, observation period 7 days
From the text: as §1

Compound: CN1CC[C@@]2(C)c3cc(OC(=O)N4CCCC4)ccc3N(C)[C@@H]12 (relative stereo) [ESE001, (3-aS-cis)-1,2,3,3a,8,8a-hexahydro 1,3a,8-trimethylpyrrole [2,3-B]-indole 5-ol-1-pyrrolidinyl-carbamate ester]
- suppression of the enzymatic activity [1]: do not suppress the enzymatic activity
- duration of the inhibitory activity compared with physostigmine [1]: last longer than that of physostigmine
- inhibition of the acetylcholinesterase activity, on the mouse brain [1]: dose-dependence, reversible inhibition
- countering of the stimulating effect of scopolamine [2]: countered
- liver kinetics / excretion [3]: pass through into the urine unchanged
- analgesic activity [4]: show also analgesic activity
- LD50 [5]: 5 mg/kg

Compound: CN1CC[C@@]2(C)c3cc(OC(=O)NN4CCNCC4)ccc3N(C)[C@@H]12 [ESE002, (3-aS-cis)-1,2,3,3a,8,8a-hexahydro 1,3a,8-trimethylpyrrole [2,3-B]-indole 5-ol-1-piperazinyl-carbamate ester]
- suppression of the enzymatic activity [1]: do not suppress the enzymatic activity
- duration of the inhibitory activity compared with physostigmine [1]: last longer than that of physostigmine
- inhibition of the acetylcholinesterase activity, on the mouse brain [1]: dose-dependence, reversible inhibition
- countering of the stimulating effect of scopolamine [2]: countered
- liver kinetics / excretion [3]: pass through into the urine unchanged
- analgesic activity [4]: show also analgesic activity
- LD50 ([5]; 1440 min): <80 mg/kg
- LD50 at 24 h [5]: > 40 mg/kg

Compound: CN1CC[C@@]2(C)c3cc(OC(=O)NN4CCOCC4)ccc3N(C)[C@@H]12 [ESE003, (3-aS-cis)-1,2,3,3a,8,8a-hexahydro 1,3a,8-trimethylpyrrole [2,3-B]-indole 5-ol-1-morpholinyl-carbamate ester]
- suppression of the enzymatic activity [1]: do not suppress the enzymatic activity
- duration of the inhibitory activity compared with physostigmine [1]: last longer than that of physostigmine
- inhibition of the acetylcholinesterase activity, on the mouse brain [1]: dose-dependence, reversible inhibition
- countering of the stimulating effect of scopolamine [2]: countered
- liver kinetics / excretion [3]: pass through into the urine unchanged
- analgesic activity [4]: show also analgesic activity
- LD50 ([5]; 1440 min): <80 mg/kg
- LD50 at 24 h [5]: > 40 mg/kg

Compound: CN1CC[C@@]2(C)c3cc(OC(=O)NN4CCSCC4)ccc3N(C)[C@@H]12 [ESE004, (3-aS-cis)-1,2,3,3a,8,8a-hexahydro 1,3a,8-trimethylpyrrole [2,3-B]-indole 5-ol-1-thio-morpholinyl-carbamate ester]
- suppression of the enzymatic activity [1]: do not suppress the enzymatic activity
- duration of the inhibitory activity compared with physostigmine [1]: last longer than that of physostigmine
- inhibition of the acetylcholinesterase activity, on the mouse brain [1]: dose-dependence, reversible inhibition
- countering of the stimulating effect of scopolamine [2]: countered
- liver kinetics / excretion [3]: pass through into the urine unchanged
- analgesic activity [4]: show also analgesic activity
- LD50 ([5]; 1440 min): <80 mg/kg
- LD50 at 24 h [5]: > 40 mg/kg

Compound: CN1CC[C@@]2(C)c3cc(OC(=O)NN4CCN(CCO)CC4)ccc3N(C)[C@@H]12 [ESE005]
- LD50 ([5]; 1440 min): >40 mg/kg
- LD50 at 24 h [5]: < 80 mg/kg

Compound: CN1CC[C@@]2(C)c3cc(OC(=O)NN4CCCNCC4)ccc3N(C)[C@@H]12 [ESE006, (3-aS-cis)-1,2,3,3a,8,8a-hexahydro 1,3a,8-trimethylpyrrole [2,3-B]-indole 5-ol-homopiperazinylcarbamate ester]
- LD50 ([5]; 1440 min): <80 mg/kg
- LD50 at 24 h [5]: > 40 mg/kg

Compound: CC1CCCC(C)N1NC(=O)Oc1ccc2c(c1)[C@]1(C)CCN(C)[C@@H]1N2C (stereo partly drawn) [ESE007, (3-aS-cis)-1,2,3,3a,8,8a-hexahydro 1,3a,8-trimethylpyrrole [2,3-B]-indole 5-ol-1-(2,6-dimethyl) piperidine carbamate ester]
- LD50 ([5]; 1440 min): < 80 mg/kg
- LD50 at 24 h [5]: > 40 mg/kg

Compound: CCCC1CN(NC(=O)Oc2ccc3c(c2)[C@]2(C)CCN(C)[C@@H]2N3C)CCO1 (stereo partly drawn) [ESE009, (3-aS-cis)-1,2,3,3a,8,8a-hexahydro 1,3a,8-trimethylpyrrole [2,3-B]-indole 5-ol-4-(3-propyl)-morpholinylcarbamate ester]
- LD50 ([5]; 1440 min): < 60 mg/kg
- LD50 at 24 h [5]: > 30 mg/kg

Compound: CCCC1CCCN(NC(=O)Oc2ccc3c(c2)[C@]2(C)CCN(C)[C@@H]2N3C)C1C (stereo partly drawn) [ESE010, (3-aS-cis)-1,2,3,3a,8,8a-hexahydro 1,3a,8-trimethylpyrrole [2,3-B]-indole 5-ol-1-(3-propyl)-2-pipecolinylcarbamate ester]
- LD50 ([5]; 1440 min): < 60 mg/kg
- LD50 at 24 h [5]: > 30 mg/kg

Compound: CCCC1CCN(NC(=O)Oc2ccc3c(c2)[C@]2(C)CCN(C)[C@@H]2N3C)C1=O (stereo partly drawn) [ESE011, (3-aS-cis)-1,2,3,3a,8,8a-hexahydro 1,3a,8-trimethylpyrrole [2,3-B]-indole 5-ol-1-(3-propyl)-2 pyrrolidone-carbamate ester]
- LD50 ([5]; 1440 min): < 60 mg/kg
- LD50 at 24 h [5]: > 30 mg/kg

Compound: CN1CC[C@@]2(C)c3cc(OC(=O)NC4CN5CCC4CC5)ccc3N(C)[C@@H]12 (stereo partly drawn) [ESE012, (3-aS-cis)-1,2,3,3a,8,8a-hexahydro 1,3a,8-trimethylpyrrole [2,3-B]-indole 5-ol-3 quinuclidyl-carbamate ester]
- LD50 ([5]; 1440 min): < 60 mg/kg
- LD50 at 24 h [5]: > 30 mg/kg

Compound: CN1CC[C@@]2(C)c3cc(OC(=O)N[C@H]4CCCCNC4=O)ccc3N(C)[C@@H]12 [MGT1, eseroline R-caprolactam carbamate]
- reduction of spontaneous motility [6]: ~-39%
- minimal doses causing a marked reduction of spontaneous motility [6]: 3.5 to 5 mg/kg
- maximum peak in plasma [7]: 36.14 ± 7.12 µg/mL
- time of the maximum peak [7]: 90 '
- concentration in plasma ([7]; after 24 hours): 5090 ± 1710 ng/mL
- concentration in plasma ([7]; time not given): 17110 ± 3810 ng/mL
- LD50 at 168 h [8]: 322 mg/kg

Compound: CN1CCC2(C)c3cc(OC(=O)NC4CCCN(CCO)C4=O)ccc3N(C)C12 (centres unmarked) [MGT3, eseroline N-ethanol-2-piperidone-3 aminocarbamate]
- inhibitory activity of the acetylcholinesterase [9]: evident dose dipendent and reversible inhibitory activity
- reduction of spontaneous motility [6]: ~-39%
- minimal doses causing a marked reduction of spontaneous motility [6]: 3.5 to 5 mg/kg
- LD50 in the mouse [10]: 383,7 ± 41,2 mg/kg

Compound: CN1CC[C@@]2(C)c3cc(OC(=O)N[C@H]4C(O)O[C@H](CO)[C@@H](O)[C@@H]4O)ccc3N(C)[C@@H]12 (stereo partly drawn) [MGT4, eseroline N-D-glucosamine carbamate]
- reduction of spontaneous motility [6]: ~-39%
- minimal doses causing a marked reduction of spontaneous motility [6]: 3.5 to 5 mg/kg
- LD50 at 168 h [8]: 398 mg/kg

Compound: CN1CC[C@@]2(C)c3cc(OC(=O)Nc4ccc5c(c4)OCO5)ccc3N(C)[C@@H]12 [MGT7, eseroline 1,3 benzodioxol-5 carbamate]
- inhibitory activity of the acetylcholinesterase [9]: evident dose dipendent and reversible inhibitory activity
- reduction of spontaneous motility [6]: ~-39%
- minimal doses causing a marked reduction of spontaneous motility [6]: 3.5 to 5 mg/kg
- LD50 at 168 h [8]: 332 mg/kg

Compound: CNC(=O)Oc1ccc2c(c1)[C@]1(C)CCN(C)[C@@H]1N2C [Physostigmine, reference compound]
- LD50 at 24 h [5]: 0.64 mg/kg
- LD50 in the mouse [10]: 4,39 ± 1,14 mg/kg
